Test results reported in PubChem BioAssay (NCI).
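Cells were grown in 96-well plates and exposed to each compound for 48 hours at five concentrations; endpoints were interpolated linearly between bracketing concentrations, or set to the highest concentration if not reached. The concentration for full growth arrest is given as TGI.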

Columns and labels:
Assay in all cases: growth of human tumour cells (NCI), 48 h
786-0 renal = test system: 786-0 renal
A498 renal = test system: A498 renal
A549 NSCLC = test system: A549 NSCLC
ACHN renal = test system: ACHN renal
BT-549 breast = test system: BT-549 breast
COLO 205 colon = test system: COLO 205 colon
DU-145 prostate = test system: DU-145 prostate
EKVX NSCLC = test system: EKVX NSCLC
HCC-2998 colon = test system: HCC-2998 colon
HCT-116 colon = test system: HCT-116 colon
HCT-15 colon = test system: HCT-15 colon
HOP-62 NSCLC = test system: HOP-62 NSCLC
HS 578T breast = test system: HS 578T breast
HT29 colon = test system: HT29 colon
IGROV1 ovarian = test system: IGROV1 ovarian
KM12 colon = test system: KM12 colon
M14 melanoma = test system: M14 melanoma
MCF7 breast = test system: MCF7 breast
MDA-MB-231 breast = test system: MDA-MB-231 breast
MDA-MB-435 = test system: MDA-MB-435
MDA-N = test system: MDA-N
MOLT-4 leukemia = test system: MOLT-4 leukemia
NCI-H226 lung = test system: NCI-H226 lung
NCI-H23 lung = test system: NCI-H23 lung
NCI-H460 lung = test system: NCI-H460 lung
NCI/ADR-RES ovarian = test system: NCI/ADR-RES ovarian
OVCAR-3 ovarian = test system: OVCAR-3 ovarian
OVCAR-4 ovarian = test system: OVCAR-4 ovarian
OVCAR-5 ovarian = test system: OVCAR-5 ovarian
OVCAR-8 ovarian = test system: OVCAR-8 ovarian
RPMI-8226 leukemia = test system: RPMI-8226 leukemia
RXF 393 renal = test system: RXF 393 renal
SF-268 CNS = test system: SF-268 CNS
SF-295 CNS = test system: SF-295 CNS
SF-539 CNS = test system: SF-539 CNS
SK-MEL-2 melanoma = test system: SK-MEL-2 melanoma
SK-MEL-28 melanoma = test system: SK-MEL-28 melanoma
SK-MEL-5 melanoma = test system: SK-MEL-5 melanoma
SK-OV-3 ovarian = test system: SK-OV-3 ovarian
SN12C renal = test system: SN12C renal
SNB-19 CNS = test system: SNB-19 CNS
SNB-75 CNS = test system: SNB-75 CNS
SW-620 colon = test system: SW-620 colon
T-47D breast = test system: T-47D breast
TK-10 renal = test system: TK-10 renal
U251 CNS = test system: U251 CNS
UACC-257 melanoma = test system: UACC-257 melanoma
UACC-62 melanoma = test system: UACC-62 melanoma
UO-31 renal = test system: UO-31 renal
CAKI-1 renal = test system: CAKI-1 renal
CCRF-CEM leukemia = test system: CCRF-CEM leukemia
HL-60(TB) leukemia = test system: HL-60(TB) leukemia
HOP-92 NSCLC = test system: HOP-92 NSCLC
K-562 leukemia = test system: K-562 leukemia
LOX IMVI melanoma = test system: LOX IMVI melanoma
MALME-3M melanoma = test system: MALME-3M melanoma
NCI-H522 lung = test system: NCI-H522 lung
PC-3 prostate = test system: PC-3 prostate

Measured: TGI

Cc1ccc(S(=O)(=O)N2CCCSCCSCCCN(S(=O)(=O)c3ccc(C)cc3)CC2)cc1
not listed: CAKI-1 renal | CCRF-CEM leukemia | HL-60(TB) leukemia | HOP-92 NSCLC | K-562 leukemia | LOX IMVI melanoma | MALME-3M melanoma | NCI-H522 lung | PC-3 prostate
> 100 µM: all other assays above

O=C1CCC(=O)N1CNc1ccc2c(c1)S(=O)(=O)c1ccccc1O2
not listed: HCC-2998 colon | NCI-H460 lung | SK-OV-3 ovarian | SNB-75 CNS
> 100 µM: all other assays above
